The record followed here is patent US4898863A, “Heterocyclic carboxamides” (ICI Americas Inc., priority 1986, dated 1990).

Molecules are shown by their SMILES.

Data set [1] relates to leukotriene LTD4. The experiment in a line: in vivo guinea-pig aerosol test (leukotriene LTD4 challenge, time of onset of breathing changes). The conditions noted are these: Cavia porcellus, oral, read-out: effective dose following oral administration.
Data set [2] is described as follows: overt toxicity / untoward side-effects in dosed laboratory animals. It is filed as in vivo, guinea-pig.

Consider `COc1cc(C(=O)NS(=O)(=O)c2ccccc2C)ccc1Cn1cc(CCC(=O)N2CCCC2)c2ccc(C(=O)NCC3CCCC3)cc21` [Example 8, N-[4-[6-(N-Cyclopentylmethylcarbamoyl)-3-[2-(pyrrolidinocarbonyl)ethyl]indol-1-ylmethyl]-3-methoxybenzoyl]-2-methylbenzesulphonamide], for which the minimal effective dose in data set [1] is 2000 µmol/kg. The “oral dose showing no sign of overt toxicity” value in data set [2] was determined as 30 mmol/kg.
